Results published in article PMC8041284, “Tunable Methacrylamides for Covalent Ligand Directed Release Chemistry” (Journal of the American Chemical Society, 2021).

biological target: BTK (Homo sapiens, UniProt Q06187); assay: biochemical; conditions: read-out: BTK inhibition (%), 0.75 uM BTK, […] probe 3l, 15 min preincubation
Sequence (Q06187 402-655 limits assumed): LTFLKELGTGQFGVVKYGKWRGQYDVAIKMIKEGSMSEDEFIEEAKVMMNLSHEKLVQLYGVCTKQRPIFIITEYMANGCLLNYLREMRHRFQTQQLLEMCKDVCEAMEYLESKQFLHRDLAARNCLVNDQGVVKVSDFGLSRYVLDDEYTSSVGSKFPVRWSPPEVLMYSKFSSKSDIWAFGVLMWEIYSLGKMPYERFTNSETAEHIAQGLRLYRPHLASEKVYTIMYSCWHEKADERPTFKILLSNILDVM

| SMILES | inhibition at 10 µM [%] |
| --- | --- |
| NC[C@@H]1O[C@H](O[C@H]2[C@@H](O)[C@H](O[C@@H]3[C@@H](O)[C@H](N)C[C@H](N)[C@H]3O[C@H]3O[C@H](CO)[C@@H](O)[C@H](O)[C@H]3N)O[C@@H]2CO)[C@H](N)[C@@H](O)[C@@H]1O [PCM-0215214] | 5.1 |
| CO[C@H]1O[C@@H]2O[C@@]3(C)CC[C@H]4[C@H](C)CC[C@@H]([C@H]1C)[C@@]24OO3 [PCM-0214640] | 3.1 |
| CC(C)n1c(=O)n(C)c2cnc3cc(F)c(-c4ccc(OCCCN5CCCCC5)nc4)cc3c21 [PCM-0216091] | -13.9 |
| N#C/C=C1/C=C[C@@H](O)[C@H](O)[C@H]1O[C@@H]1O[C@H](CO)[C@@H](O)[C@H](O)[C@H]1O [PCM-0216369] | -11.6 |
| N#Cc1ccc(-c2c(-c3ncn[nH]3)sc(N3CCOCC3)c2C#N)c(F)c1 [PCM-0215501] | 19.3 |
| O=C(NOCCO)c1ccc2cncn2c1Nc1ccc(I)cc1F [PCM-0215498] | 28.3 |
| Oc1ccc2c(c1)OC[C@]1(O)Cc3cc(O)c(O)cc3[C@H]21 [PCM-0216323] | 0 |
| COc1ccccc1OCCN [PCM-0216626] | -11.6 |
| C[C@@H](N)C(=O)N[C@@H](CO)C(=O)N[C@H](C(=O)N[C@H](C(=O)N[C@H](C(=O)N[C@@H](CC(N)=O)C(=O)N[C@@H](Cc1ccc(O)cc1)C(=O)N[C@H](C(N)=O)[C@@H](C)O)[C@@H](C)O)[C@@H](C)O)[C@@H](C)O [PCM-0215819] | 11.1 |
| Cc1cc(N2CCOCC2)cc2[nH]c(-c3c(NC[C@@H](O)c4cccc(Cl)c4)cc[nH]c3=O)nc12 [PCM-0214699] | 109 |
| COc1cc(/C=C/c2ccc(O)c(O)c2)cc(OC)c1 [PCM-0214943] | 36.6 |
| Nc1nc(Cl)nc2c1ncn2[C@H]1C[C@H](O)[C@@H](CO)O1 [PCM-0086228] | -16.6 |
| N#Cc1cc(CN2CCC(Nc3ncnc4sc(Cl)cc34)CC2)ccc1F [PCM-0095600] | 2.3 |
| N#Cc1ccc(Oc2ccc3c(c2)COB3O)cc1 [PCM-0215118] | 8.5 |
| COc1cc(C)c(/C=C/C(C)=C/C=C/C(C)=C/C(=O)O)c(C)c1C [PCM-0086430] | 10.9 |
| N#Cc1c(O)c2c(-c3ccc(-c4ccccc4O)cc3)csc2[nH]c1=O [PCM-0095407] | 51.7 |
| C[C@@H]1O[C@@H](OC[C@H]2O[C@@H](Oc3cc(O)c4c(c3)O[C@H](c3ccc(O)cc3)CC4=O)[C@H](O)[C@@H](O)[C@@H]2O)[C@H](O)[C@H](O)[C@H]1O [PCM-0216493] | 10.8 |
| c1ccc(-c2nn3c(c2-c2ccnc4cc(OCCN5CCOCC5)ccc24)CCC3)nc1 [PCM-0095413] | -24.7 |
| CC(=O)O[C@H](CC=C(C)C)C1=CC(=O)c2c(O)ccc(O)c2C1=O [PCM-0216503] | 35.7 |
| COCC(=O)Nc1cc(Sc2ccccc2)ccc1N=C(NC(=O)OC)NC(=O)OC [PCM-0216017] | 11.6 |
| COc1ccc(/C=C/c2cc(O)cc(O[C@@H]3O[C@H](CO)[C@@H](O)[C@H](O)[C@H]3O)c2)cc1O [PCM-0214544] | 6.9 |
| Cc1ccnc2c1NC(=O)c1cccnc1N2C1CC1 [PCM-0090346] | -3.1 |
| OCc1ccccc1O[C@@H]1O[C@H](CO)[C@@H](O)[C@H](O)[C@H]1O [PCM-0086703] | -7.6 |
| COc1ccc2cc1Oc1ccc(cc1)C[C@H]1c3c(cc4c(c3Oc3cc5c(cc3OC)CCN(C)[C@@H]5C2)OCO4)CCN1C [PCM-0214760] | 30.4 |
| NN1CC(=O)NC1=O [PCM-0216229] | -7.8 |

| SMILES | inhibition at 10 µM [%] |
| --- | --- |
| C=CCSC[C@H](N)C(=O)O [PCM-0215956] | 3.4 |
| O=C(O)CCC1CCC(c2cc(F)ccc2F)(S(=O)(=O)c2ccc(Cl)cc2)CC1 (stereo not shown) [PCM-0095325] | -15.2 |
| C[C@@H]1CC[C@]2(C(=O)O)CC[C@]3(C)C(=CC[C@@H]4[C@@]5(C)CC[C@H](O[C@@H]6OC[C@H](O)[C@H](O)[C@H]6O)C(C)(C)[C@@H]5CC[C@]43C)[C@@H]2[C@]1(C)O [PCM-0216436] | 14.7 |
| CCNc1nc(Nc2cc(F)c(C(=O)N3CCOCC3)cc2OC)ncc1C(F)(F)F [PCM-0215337] | -9 |
| Cc1c(C(=O)Nc2ccc(N3CCC(N4CCOCC4)CC3)c(C#N)c2)cnn1-c1ccc(Cl)cc1 [PCM-0215293] | -11.7 |
| COC1CCC(N2C(=O)CNc3ncc(-c4ccc(C(C)(C)O)nc4)nc32)CC1 (stereo not shown) [PCM-0215601] | 15.9 |
| O=C(NCC1(c2nc(-c3ccccc3)cs2)CCOCC1)c1cccc(-c2noc(C(F)(F)F)n2)c1 [PCM-0215333] | -9.3 |
| OC[C@H]1O[C@@H](Oc2cc(O)cc(/C=C/c3ccc(O[C@@H]4O[C@H](CO)[C@@H](O)[C@H](O)[C@H]4O)cc3O)c2)[C@H](O)[C@@H](O)[C@@H]1O [PCM-0216371] | -5.4 |
| CC1(C)C=Cc2c(ccc3c2OC[C@@H](c2ccc(O)cc2O)C3)O1 [PCM-0214974] | 70.3 |
| COC(=O)C1=C(C)NC(C)=C(C(=O)OC(C)C)C1c1cccc2nonc12 (stereo not shown) [PCM-0086297] | -2.3 |
| Cc1ccc(C(=O)c2ccc(CC(=O)O)n2C)cc1 [PCM-0215259] | 9.4 |
| O=C(O)c1cn(C2CC2)c2cc(Cl)c(F)cc2c1=O [PCM-0216105] | 7.7 |
| NCCCCCC(=O)O [PCM-0064402] | -2.3 |
| Cc1cc(=O)n(-c2ccccc2)n1C [PCM-0085809] | 13.8 |
| CCCC(CCC)C(=O)OC1C[C@H]2CC[C@@H](C1)[N+]2(C)C (stereo partly shown) [PCM-0215249] | -37.4 |
| NC1(c2ccc(-c3nc4ccn5c(=O)[nH]nc5c4cc3-c3ccccc3)cc2)CCC1 [PCM-0095042] | -2.8 |
| Cc1c(C(=O)NN2CCCCC2)nn(-c2ccc(Cl)cc2Cl)c1-c1ccc(Cl)cc1 [PCM-0095470] | 42 |
| O=c1ccc2cc(O)ccc2o1 [PCM-0216289] | -10 |
| CC(C)=CCC/C(C)=C/C=O [PCM-0215914] | -17 |
| C=CCNC1=C2C[C@@H](C)C[C@H](OC)[C@H](O)[C@@H](C)/C=C(\C)[C@H](OC(N)=O)[C@@H](OC)/C=C\C=C(/C)C(=O)NC(=CC1=O)C2=O [PCM-0094959] | 14 |
| CCc1ccc(OCc2ccccc2C(=O)Nc2ccc3nc(C)cc(N)c3c2)cc1 [PCM-0095441] | 33.5 |
| Cc1ccc(C=NNC(=O)c2ccccc2Oc2ccccc2)o1 [PCM-0215777] | -16.2 |
| CN(C)CCC(c1ccc(Br)cc1)c1ccccn1 (stereo not shown) [PCM-0064576] | -19.3 |
| O=S1(=O)CCN(CN2CCS(=O)(=O)NC2)CN1 [PCM-0215138] | 0 |
| O=Cc1ccccc1O[C@@H]1O[C@H](CO)[C@@H](O)[C@H](O)[C@H]1O [PCM-0215148] | -15.6 |

| SMILES | inhibition at 10 µM [%] |
| --- | --- |
| O=S(=O)(N=Cc1c(O)ccc2ccccc12)c1cccs1 [PCM-0215452] | -11.6 |
| CC12CC(c3ccoc3)OC13CC(OC3=O)C1C3CC(CC12)OC3=O (stereo not shown) [PCM-0216321] | 2.3 |
| CN1CCN(CCCNc2ncc(Cl)c(-c3cc4c(C(=O)NC5CC5)cccc4s3)n2)CC1 [PCM-0215458] | -10.8 |
| CC(=O)O[C@@H]1C[C@@]23C[C@@]24CC[C@H](O[C@@H]2OC[C@@H](O)[C@H](O)[C@H]2O)C(C)(C)[C@@H]4CC=C3[C@]2(C)C[C@@H]3OC4(C[C@@H](C)[C@@H]3[C@@]12C)OC(O)C1(C)OC41 (stereo partly shown) [PCM-0216175] | -6.2 |
| CN(C)C/C=C/C(=O)Nc1ccc(C(=O)Nc2cccc(Nc3ncc(Cl)c(-c4c[nH]c5ccccc45)n3)c2)cc1 [PCM-0213464] | 117 |
| OCc1cc(C(O)CNCCCCCCOCCCCc2ccccc2)ccc1O (stereo not shown) [PCM-0065569] | -12.4 |
| COc1ccc(CCCOC(Cn2ccnc2)c2ccc(OC)cc2)cc1 (stereo not shown) [PCM-0215655] | -8.5 |
| O=C1/C(=C/c2cccs2)CC/C1=C\c1cccs1 [PCM-0215307] | 6 |
| CCN[C@H]1CN(CCCOC)S(=O)(=O)c2sc(S(N)(=O)=O)cc21 [PCM-0086056] | -11.7 |
| CCCCCCNC(=O)Nc1ccc(S(=O)(=O)Nc2ccc(CCNC[C@H](O)COc3ccc(O)cc3)cc2)cc1 [PCM-0215659] | 5.4 |
| O=C1C[C@@H](c2ccccc2)Oc2cc(O)cc(O)c21 [PCM-0214944] | 11.7 |
| Cc1ccc(NC(=O)c2ccc(CN3CCN(C)CC3)cc2)cc1Nc1nc(-c2cccnc2)cs1 [PCM-0094992] | -47.6 |
| CC1(C)O[C@@H]2C[C@H]3[C@@H]4C[C@H](F)C5=CC(=O)C=C[C@]5(C)[C@@]4(F)[C@@H](O)C[C@]3(C)[C@]2(C(=O)CO)O1 [PCM-0086270] | -17.1 |
| CN1CC(O)c2cc(N=NC(N)=O)c(O)cc21 (stereo not shown) [PCM-0216016] | 28.3 |
| O=c1[nH]c2ccc(Cl)cc2c(N[C@@H]2CN3CCC2CC3)c1-c1nc2ccccc2[nH]1 [PCM-0095378] | 0 |
| COc1cc2ncnc(Nc3ccc(F)c(Cl)c3)c2cc1OCCCN1CCOCC1 [PCM-0086349] | 2.1 |
| CC(C)c1ccc(NC(=O)Cn2cnc3c2c(=O)n(C)c(=O)n3C)cc1 [PCM-0095403] | -12.5 |
| CC(C)(CNC(=O)c1cccc(-c2noc(C(F)(F)F)n2)c1)c1coc(-c2ccccc2)n1 [PCM-0215836] | -30.9 |
| CSCCNc1nc(SCCC(F)(F)F)nc2c1ncn2[C@@H]1O[C@H](COP(=O)(O)OP(=O)(O)C(Cl)(Cl)P(=O)(O)O)[C@@H](O)[C@H]1O [PCM-0215886] | -50.2 |
| NCCOc1cc(C(=O)Nc2cc(OCCN)c3ccccc3n2)nc(C(=O)Nc2cc(OCCN)c3ccccc3n2)c1 [PCM-0215476] | 59.5 |
| CC(C)n1cnc2c(NCCc3ccc(O)cc3)nc(-c3csc4ccccc34)nc21 [PCM-0095500] | 34.2 |
| C=CCn1c(=O)c2cnc(Nc3ccc(N4CCN(C)CC4)cc3)nc2n1-c1cccc(C(C)(C)O)n1 [PCM-0095195] | 37.2 |
| CC(C)=CCC[C@](C)(O[C@@H]1O[C@H](CO)[C@@H](O)[C@H](O)[C@H]1O)[C@H]1CC[C@]2(C)[C@@H]1[C@H](O)C[C@@H]1[C@@]3(C)CC[C@H](O)C(C)(C)[C@@H]3[C@@H](O[C@@H]3O[C@H](CO)[C@@H](O)[C@H](O)[C@H]3O)C[C@]12C [PCM-0215029] | 14 |
